The values that follow come from patent US10213428B2, “(4-((3R,4R)-3-methoxytetrahydro-pyran-4-ylamino)piperidin-1-yl)(5-methyl-6-(((2R,6S)-6-(p-tolyl)tetrahydro-2H-pyran-2-yl)methylamino)pyrimidin-4-yl)methanone citrate” (Centrexion Therapeutics Corporation, priority 2015, dated 2019).

The nature of data set [1]: Intravenous pharmacokinetics in dog. The class given is in vivo, beagle dogs. The conditions noted are these: IV dose 5 μmol/kg, mean values. The source says:
(§1) The pharmacokinetics of the test compound following single intravenous (IV) or oral (PO) doses were examined in • female BALB/c mice (average weight: 25 g) • male Wistar(Han) rats (average weight: 260 g) • male and female Göttingen Minipigs (average weight: 24 kg) • male beagle dogs (average weight: 15 kg) All non-rodent species were fasted overnight prior to dosing, while mice and rats had food and water available ad libitum. The p.o. dose of the compound was usually administered as suspension in 0.5% Natrosol or as a 0.5% Natrosol/0.015% Tween 80 suspension. For i.v. dosing purposes, the doses were applied as a solution in 0.9% NaCL, or as a solution containing 9.1% HP-beta Cyclodextrin in water.
(§2) Blood was collected by venous sampling and soaking of the blood in EDTA coated tubes. Samples were collected for up to 48 h after administration of the test compound. Plasma was then separated by centrifugation (5 min by approximately 9000 g at 4° C.). For determination of the test compound, plasma was transferred into PCR plates. All samples were stored at approximately −20° C. until bioanalytics. The test compound concentrations in plasma were determined by HPLC MS/MS. The lower limit of quantification was between 0.5 nmol/L and 1 nmol/L.

The test system of data set [2] is hepatocytes. The data set is described as follows: In vitro metabolic stability in hepatocyte incubations, mouse. The following applies: Mouse hepatocytes, 1 μM. The class given is in vitro ADME. The protocol: (§3) Metabolic degradation of the test compound is assayed in a hepatocyte suspension. Hepatocytes are incubated in an appropriate buffer system. Following a (typically) 30 min preincubation in an incubator (37° C., 10% CO2) 5 μL of test compound solution (1 μM) are added into 395 μL hepatocyte suspension (cell density in the range 0.25-5 Mio cells/mL, typically 1 Mio cells/mL, final DMSO concentration 0.05%). The cells are incubated for six hours (incubator, orbital shaker) and samples (25 μL) are taken at 0, 0.5, 1, 2, 4 and 6 hours. Samples are transferred into acetonitrile and pelleted by centrifugation (5 min). The supernatant is transferred to a new 96-deepwell plate, evaporated under nitrogen and resuspended. Decline of parent compound is analyzed by HPLC-MS/MS. CLint is calculated as follows CL_INTRINSIC=Dose/AUC=(CO/CD)/(AUD+clast/k)×1000/60. […]

Assay in data set [3]: as above
It counts as in vitro ADME. The following applies: hepatocytes (suspension); Mouse; predicted from hepatocyte CL intrinsic, well stirred model; read-out: CL, in vivo. The protocol:
as §3

Data set [4] relates to hepatocytes. Description: In vitro metabolic stability in hepatocyte incubations, minipig. It counts as in vitro ADME. The conditions noted are these: Minipig hepatocytes, 1 μM. Here is the method:
as §3

Assay in data set [5]: as above
The following applies: hepatocytes (suspension); Minipig; predicted from hepatocyte CL intrinsic, well stirred model. The class given is in vitro ADME. Here is the method:
as §3

Data set [6] concerns hepatocytes. Description: In vitro metabolic stability in hepatocyte incubations, human. It counts as in vitro ADME. The following applies: Human hepatocytes, 1 μM. The protocol: as §3
Assay in data set [7]: as above
It counts as in vitro ADME. The following applies: hepatocytes (suspension); Human; predicted from hepatocyte CL intrinsic, well stirred model; read-out: CL, in vivo. The protocol: as §3

The subject of data set [8] is plasma protein. The data set is described as follows: In vitro plasma protein binding (equilibrium dialysis), human. The class given is in vitro ADME. The conditions noted are these: 1.0 μM, dialysis 2 hours at 37° C. The protocol:
(§4) Dianorm Teflon dialysis cells (micro 0.2) are used. Each cell consists of a donor (i.e., buffer chamber) and an acceptor chamber (i.e., plasma chamber), separated by an ultrathin semipermeable membrane with a 5 kDa molecular weight cutoff. Stock solutions for each test compound are prepared in DMSO at 1 mM and diluted to a final concentration of 1.0 μM. Aliquots of 200 μL dialysis buffer (100 mM potassium phosphate, pH 7.4) are dispensed into the buffer chamber. Aliquots of 200 μL test compound dialysis solution are dispensed into the plasma chambers. Incubation is carried out for 2 hours under rotation at 37° C. Then, the dialysate is transferred into reaction tubes. The tubes for the buffer fraction contain 0.2 mL acetonitril/water (80/20 volume/volume). Aliquots of 25 μL of the plasma dialysate are transferred into deep well plates and mixed with 25 μL acetonitril/water (80/20 volume/volume), 25 μL buffer, 25 μL calibration solution and 25 μL Internal Standard solution. Protein precipitation is done by adding 200 μL acetonitrile. Aliquots of 50 μL of the buffer dialysate are transferred into deep well plates and mixed with 25 μL blank plasma, 25 μL Internal Standard solution and 200 μL acetonitril. Percent bound is calculated with the formula: % bound=(plasma concentration−buffer concentration/plasma concentration)×100.
On the technique in general: Equilibrium dialysis compares concentrations on both sides of a semipermeable membrane.

Assay in data set [9]: as above
The conditions noted are these: pH 7.4, dialysis 2 hours at 37° C., read-out: Fraction bound (converted). The class given is in vitro ADME. The protocol: as §4

The subject of data set [10] is hepatocytes. Description: In vitro metabolic stability in hepatocyte incubations, dog. It counts as in vitro ADME. The following applies: Dog hepatocytes, 1 μM. The protocol: as §3
Assay in data set [11]: as above
It counts as in vitro ADME. The conditions noted are these: hepatocytes (suspension); Dog; predicted from hepatocyte CL intrinsic, well stirred model; read-out: CL, in vivo. The protocol:
as §3

Data set [12] is described as follows: Intravenous pharmacokinetics in minipig. The class given is in vivo, Göttingen Minipigs. The conditions noted are these: IV dose 5 μmol/kg, mean values.
Description: as §1, §2

In data set [13] the test system is plasma protein. Description: In vitro plasma protein binding (equilibrium dialysis), mouse. It counts as in vitro ADME. The following applies: 1.0 μM, dialysis 2 hours at 37° C. Here is the method: as §4
Assay in data set [14]: as above
It counts as in vitro ADME. The conditions noted are these: pH 7.4, dialysis 2 hours at 37° C., read-out: Fraction bound (converted). The protocol: as §4

For another data set, the system named is U937 cells. The data set is described as follows: In vitro phospholipidosis assay (Nile Red staining, flow cytometry). The conditions noted are these: 48 hours incubation. In general terms: Flow cytometry measures light scatter and fluorescence of single cells or particles in a stream.
The subject of data set [15] is plasma protein. The data set is described as follows: In vitro plasma protein binding (equilibrium dialysis), minipig. It counts as in vitro ADME. The following applies: 1.0 μM, dialysis 2 hours at 37° C. Here is the method:
as §4

Assay in data set [16]: as above
It counts as in vitro ADME. The conditions noted are these: pH 7.4, dialysis 2 hours at 37° C., read-out: Fraction bound (converted). The protocol:
as §4

Where [17] appears, read: male, beagle, plasma, 5 umol/kg.
[18] abbreviates: both sexes, Göttingen, plasma, 5 umol/kg.

Structures are written as SMILES.

Description for U937 cells: Cell line: U937. Cell density: 0.5 Mio. cells/mL. Amount of medium: 3 mL/well.
3×0.5 mL suspensions of cells are prepared from each sample for flow cytometry measurement (non-fixed cells for viability determination, non-fixed cells and fixed cells for phospholipidosis analysis).
Immediately before measurement, 12.5 μL of the PI ready to use solution is added per sample (0.5 mL non-fixed cell suspension), which are kept on ice for another 15 min before measurement.
Cut-off gates for the fluorescence-dependent differentiation between life and dead cells are defined based on the analysis of cell culture medium plus vehicle exposed Control cells. Cells with a fluorescence lower than the cut-off are defined as viable. Absolute viability of a sample is the relation of viable cells to total cell number and expressed as percentage.
Immediately before measurement, 50 μL of the NR ready to use solution for live cell staining is added per sample (0.5 mL non-fixed cell suspension). Samples are kept on ice for another 5 min. […]
Both the Nile Red stained non-fixed cells as well as the Nile Red stained fixed cells are measured according the following procedure. […]
For each channel, absolute fluorescence intensity of a specific sample is correlated to the mean absolute fluorescence intensity of all cell culture medium plus vehicle exposed Control cells of the respective experiment. […]

As a reminder, the AUC(0-inf) is total exposure, with the tail of the curve extrapolated. Read a high AUC(0-inf) as more exposure. For orientation: clearance means a measure of how efficiently the substance is removed, as volume per time. A low value points to inefficient removal. Regarding `CO[C@H]1COCC[C@H]1NC1CCN(C(=O)c2ncnc(NC[C@H]3CCC[C@@H](c4ccc(C)cc4)O3)c2C)CC1` [compound I, (4-((3R,4R)-3-methoxytetrahydro-pyran-4-ylamino)piperidin-1-yl)(5-methyl-6-(((2R,6S)-6-(p-tolyl)tetrahydro-2H-pyran-2-yl)methylamino)pyrimidin-4-yl)methanone], the MRTdisp in data set [1] is 6.40 h; in data set [12], 4.15 h. Also, the total exposure AUC(0-inf) came to 5.99 µM·h in data set [1] (setting [17]) and 4.31 µM·h in [12] (setting [18]). Further, the clearance in data set [1] (setting [17]) stood at 14 mL/min/kg; in data set [12] (setting [18]) it was 20 mL/min/kg. Also, the Vd in data set [1] (male, beagle, plasma, 5 umol/kg, read-out: Vss) is 4.94 L/kg; in [12] (both sexes, Göttingen, plasma, 5 umol/kg, read-out: Vss), 5.07 L/kg. The “CL intrinsic, in vitro” value is listed as 16.4 μL/min/10e6 cells in the data set on hepatocytes [2], 2.73 μL/min/10e6 cells with hepatocytes [4], 4.11 μL/min/10e6 cells with hepatocytes [6] and 3.15 μL/min/10e6 cells in the data set on hepatocytes [10]. Further, the CLhep predicted at 1 μM in data set [3] is 49 mL/min/kg; in data set [7], 7.9 mL/min/kg; in data set [11], 14 mL/min/kg. The predicted in vivo clearance at 1 μM in [5] was 6.8 mL/min/kg. For the same compound, the Fraction unbound with plasma protein [8] worked out at 15.3%; with plasma protein [13] it was 4.9%; in the data set on plasma protein [15], 39.2%. Also, the figures for the fraction unbound at 2 h, 1 μM in [9], in data set [14] and in data set [16] were 0.153, 0.049 and 0.392, respectively. The compound also registered a lowest phospholipidogenic concentration with U937 cells of 200 µM. Moreover, the “phospholipidogenic potential (in words)” value with U937 cells is reported as “propensitiy to be phospholipidogenic”.
